Measured values taken from patent US9885060B2, “Alkene production” (Evonik Degussa GmbH, priority 2015, dated 2018).

Legend:
OleT [1] = assay: Trapping, derivatization (Br2/DCM impinger) and quantification of 1-butene and 1-propene formed by the OleT-CamAB-FDH cascade; type: biochemical; settings: 10 mM substrate, 10 ml scale
Description: FIG. 7 is a picture of a novel reaction set up for trapping volatile α-olefins, such as 1-propene and 1-butene. A small impinger containing 10 ml of a 20 mM Br2/DCM solution was placed on top of the flask serving as sole gas outlet and trap for α-olefin products. The functionality of this system was successfully confirmed using an analytical standard of 1-heptene. The concept for derivatization and trapping of volatile α-olefins is shown in Scheme 2.
Production of 1-propene and 1-butene was initially confirmed using manual headspace GC-MS injection. Since the quantification of 1-propene and 1-butene using analytical standards was not feasible, a novel trapping/derivatization system for highly volatile short-chain α-olefins derived from biocatalytic reactions was designed. […]
The obtained products were analyzed by GC-FID and GC-MS using analytical standards of 1,2-dibromobutane and 1,2-dibromopropane. Due to the (visible) gas exhaust (CO2 production by OleT and FDH) and strong evaporation of DCM (˜70% volume lost after 24 h), the residual volume in the impinger was determined to allow reliable product quantification. Calibration curves for 1,2-dibromobutane and 1,2-dibromopropane were prepared to allow quantification of produced 1-propene and 1-butene (not shown). […]

OleT [2] = assay: Decarboxylation of FAs C22 to C4 employing the FDH-CamAB-OleT redox-cascade; type: biochemical; settings: for Conversion / α-Olefin: 10 mM substrate
Description: Enzymatic reactions (1 mL scale) were quenched by addition of 100 μL 5 N Extraction of substrate and products was performed with 500 μL EtOAc containing 0.1% 1-decanol as internal standard. The organic phase was dried over anhydrous Na2SO4. Derivatization of carboxylic acids (fatty acids and hydroxy acids) to the corresponding methyl esters was achieved by mixing the organic phase with MeOH (2.5:1.5 v/v) followed by supplementation of 5 to 15 μL of 2 M TMSCHN2 (trimethylsilyldiazomethane in diethyl ether). The mixture was incubated for 30 min, 25° C. and 750 rpm before injection into GC-FID or GC-MS, Extraction and derivatization of products and substrates from conversion of short chain FAs ([…]) was performed using the same protocol but all steps were performed on ice to prevent undesired loss of volatile products.
Products from FA substrates with chain lengths ranging from C22 to C10 were separated on a HP5 column (Programm) and detected by GC-FID or GC-MS. Extracted products from conversion of nonanoic acid (I-octene as product) were separated on a DB1702 column (Programm) and detected by GC-FID. Authentic standards of substrates and terminal olefins were treated as described above and were used as references for identification and preparation of calibration curves. Detection of volatile short chain terminal olefins (1-butene/1-propene [ongoing] to 1-heptene) was accomplished by manual injection from vial headspaces into GC-MS, in order to prevent loss of products, the vials containing the reaction mixtures were sealed with a PTFE septum. After conversion the closed vial was heated for 10 min at 80° C., together with a 10 ml syringe (TYPE). From the headspace 2 to 9 μl volumes were injected splitless into a GC-MS chromatograph and analytes were separated on a HP5 column (Programm). Calibration curves for 1-pentene, 1-hexene and 1-heptene were prepared in the same way at 4° C. and using 5% DMF as cosolvent.
The substrate scope of OleT was further investigated by varying the FA chain length from C3 to C22. […] For the first time, short EAs could be decarboxylated to the corresponding olefins, covering the whole spectrum from C11 down to C4. […] Due to the high volatility of short chain olefins, product work up was done at 4° C. […] (2.53 mM product from 5 mM lauric acid). Head-space analysis by GC-MS from reactions with short chain FAs (C8-C5) confirmed the formation of the respective α-olefins, allowing the first biotechnological access to 1-heptene, 1-hexene and 1-pentene and 1-butene with OleT.
Conversion of heptanoic acid was carried out as described in Example 4 using the OleTCamAB-FDH reaction cascade.
Calibration curves for 1-hexene were prepared accordingly ranging from 0.05 to 2 mM. Due to a strong overlap of […] with the peak areas of CO2 and EtOH (FIG. 1, peaks a, b and c) the ion extraction mode of the GC-MS to generate reliable calibration curves was used. Neither CO2 nor EtOH interfered with the product peak area. This can be seen comparing FIGS. 1 and 5 which allow reliable and linear quantification of 1-hexene (FIG. 6) using manual headspace GC-MS injection.
Manual headspace injection into GC-MS was successfully performed for all substrates with chain lengths of C11 to C6. Conversion of 10 mM heptanoic acid allowed reliable formation of up to 1.3 mM 1-hexene without further optimization of the reaction conditions.

| SMILES | α-olefin formed (trapped as 1,2-dibromoalkane) (OleT [1]) [µM] | Conversion (OleT [2]; 25 °C, 24 h) [%] | α-Olefin (OleT [2]; 25 °C, 24 h) [µM] | Conversion (OleT [2]; 4 °C, 72 h) [%] | α-Olefin (OleT [2]; 4 °C, 72 h) [µM] | formation of 1-hexene (OleT [2]; 10 mM heptanoic acid, manual headspace GC-MS) |
| --- | --- | --- | --- | --- | --- | --- |
| CCCC(=O)O [C4, butyric acid] | 504 | 5 | 504 |  |  |  |
| CCCCC(=O)O [C5, valeric acid] | 834 | 8.3 | 834 |  |  |  |
| CCCCCC(=O)O [C6, caproic acid/hexanoic acid] |  | 12 | 1170 | 7.7 | 772 |  |
| CCCCCCC(=O)O [C7, heptanoic acid] |  | 13 | 1298 | 9.5 | 946 | up to 1.3 mM |
| CCCCCCCC(=O)O [C8, caprylic acid/octanoic acid] |  | 3.6 | 364 | 1.4 | 141 |  |
